Results on eleven compounds are retold here after patent US20210395210A1, “INHIBITION OF BACTERIAL CHAPERONIN SYSTEMS” (THE TRUSTEES OF INDIANA UNIVERSITY, priority 2018, published 2021).

One data set deals with T1, native MDH (Sus scrofa, UniProt P00346).
T1 construct: soluble pig heart MDH from Roche, product #10127248001; purchased Roche 10127248001; host or cells: pig heart
T1 sequence (P00346 25-338): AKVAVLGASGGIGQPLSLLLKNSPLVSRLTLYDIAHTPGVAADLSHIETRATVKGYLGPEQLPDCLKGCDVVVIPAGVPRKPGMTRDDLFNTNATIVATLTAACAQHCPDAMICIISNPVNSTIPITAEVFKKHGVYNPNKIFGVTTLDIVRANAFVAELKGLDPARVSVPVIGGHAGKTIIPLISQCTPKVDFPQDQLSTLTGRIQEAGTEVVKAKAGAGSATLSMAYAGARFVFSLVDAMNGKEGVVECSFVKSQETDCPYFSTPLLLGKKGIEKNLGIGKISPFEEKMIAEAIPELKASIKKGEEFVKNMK
As to the kind of experiment: Counter-screen for inhibition of native MDH enzymatic activity. The data set is classed as biochemical, pig. Summed up: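 Compounds were added only after GroEL/ES-mediated MDH refolding (45 min, 37 °C) had been EDTA-quenched, so only refolded MDH activity is probed.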
(In general: Counterscreens check selectivity or assay interference.)

Data set [1] relates to Methicillin resistant S. aureus (MRSA) (ATCC BAA-44). As to the kind of experiment: Bacterial proliferation assay, MRSA. The data set is classed as cell-based, Staphylococcus aureus. The source says:
(§1) Bacterial Strains: Enterococcus faecium—(Orla-Jensen) Schleifer and Kilpper-Balz strain NCTC 7171 (ATCC 19434); Drug sensitive Staphylococcus aureus—Rosenbranch strain Seattle 1945 (ATCC 25923); Methicillin resistant S. aureus (MRSA)—Rosenbach strain HPV107 (ATCC BAA-44); Klebsiella Pneumonia—(Schroeter) Trevisan strain NCTC 9633 (ATCC 13883); Acinetobacter baumannii—Bouvet and Grimont strain 2208 (ATCC 19606); Pseudomonas aeruginosa—(Schroeter) Migula strain NCTC 10332 (ATCC 10145); Enterobacter cloacae—E. cloacae, subsp. cloacae (Jordan) Hormaeche and Edwards strain CDC 442-68 (ATCC 13047).
(§2) Growth Media: All bacteria were grown in Brain Heart Infusion (BHI) broth/agar (Becton, Dickinson and Company). All liquid cultures were grown in BHI media supplemented with 25 mg/L Ca^2+ and 12.5 mg/L Mg^2+ to mimic free physiological concentrations of these cations. A 10 mg/mL Ca^2+ stock solution was prepared by dissolving 3.68 g of CaCl2.2H2O in 100 mL of deionized water, and a 10 mg/mL Mg^2+ stock solution was prepared by dissolving 8.36 g of MgCl2.6H2O in 100 mL deionized water. Both stock solutions were filter-sterilized using 0.2 μm pore size cellulose-acetate filters. 2.5 mL of the sterile 10 mg/mL Ca^2+ stock and 1.25 mL of the sterile 10 mg/mL Mg^2+ stock solutions were added per 1 L of autoclaved BHI medium to obtain 25 mg/L Ca^2+ and 12.5 mg/L Mg^2+ ions, respectively.
(§3) General Assay Protocol: Stock bacterial cultures were streaked onto BHI agar plates and grown overnight at 37° C. Fresh aliquots of broth were inoculated with single bacterial colonies and the cultures were grown overnight at 37° C. with shaking (240 rpm) in cation adjusted BHI media. The following morning, the overnight cultures were sub-cultured (1:5 dilution) into fresh aliquots of cation adjusted BHI media and grown at 37° C. for 1-2 hours with shaking. After 2 h, cultures were diluted into fresh media to achieve final OD600 readings of 0.017. Aliquots of these diluted cultures (30 μL) were added to clear, flat-bottom, 384-well polystyrene plates that were stamped with 0.5 μL of test compounds in 20 μL media. […] Plates were sealed with “Breathe Easy” oxygen permeable membranes (Diversified Biotech) and left to incubate at 37° C. without shaking (stagnant assay). OD600 nm readings were taken at either 6-8 h (S. aureus, MRSA, K. pneumonia, E. cloacae, and P. aeruginosa) or 24 h (E. faecium and A. baumannii). A second set of baseline control plates were prepared analogously, but without any bacteria added, to correct for possible compound absorbance and/or precipitation. Plates were then read at 600 nm using a Molecular Devices SpectraMax Plus384 microplate reader. […] Results presented represent the averages of EC50 values obtained from at quadriplicate (duplicate of duplicate) replicates.

Data set [2] relates to Klebsiella Pneumonia (ATCC 13883). As to the kind of experiment: Bacterial proliferation assay, K. pneumoniae. The data set is classed as cell-based.
Description: as §1, §2, §3

Data set [3] deals with Acinetobacter baumannii (ATCC 19606). Briefly: Bacterial proliferation assay, A. baumannii. The data set is classed as cell-based.
Description: as §1, §2, §3

The next data set in a line: in vitro. The note with it: human. The method, then:
HEK 293 cells were maintained in MEM medium (Corning Cellgro, 10-009 CV) supplemented with 10% FBS (Sigma, F2242). […] Cells at 80% confluence were harvested and diluted in growth medium, then 45 μL of the THLE-3 cells (1,500 cells/well) or HEK 293 cells (1,500 cells/well) were dispensed per well, and plates were sealed with “Breathe Easy” oxygen permeable membranes (Diversified Biotech) and incubated at 37° C., 5% CO2, for 24 h.

Setting [4] is: log of IC50 (μM scale), with standard deviation, read-out: log(IC50) Native MDH Reporter (converted).
Setting [5] is: read-out: Biochemical Assay IC50 Native MDH Reporter.
Setting [6] is: Staphylococcus aureus, MRSA, log of EC50 (μM scale), with standard deviation, read-out: log(EC50) Bacterial Proliferation Assay S. aureus Resistant (converted).
Where [7] appears, read: ATCC13883, OD600 at 6-8 h, read-out: Bacterial Proliferation EC50 K. pneumoniae.
[8] abbreviates: ATCC13883, log of EC50 (μM scale), with standard deviation, read-out: log(EC50) Bacterial Proliferation Assay K. pneumoniae (converted).
[9] abbreviates: ATCC19606, OD600 at 24 h, read-out: Bacterial Proliferation EC50 A. baumannii.
The mark [10] stands for this setting: ATCC19606, log of EC50 (μM scale), with standard deviation, read-out: log(EC50) Bacterial Proliferation Assay A. baumannii (converted).
Where [11] appears, read: Staphylococcus aureus, read-out: Bacterial Proliferation EC50 S. aureus Resistant.
The mark [12] stands for this setting: Staphylococcus aureus, read-out: log(EC50) Bacterial Proliferation Assay S. aureus Resistant (converted).
Setting [13] is: ATCC13883, read-out: Bacterial Proliferation EC50 K. pneumoniae.
[14] abbreviates: ATCC13883, read-out: log(EC50) Bacterial Proliferation Assay K. pneumoniae (converted).
[15] abbreviates: ATCC19606, 24 h, read-out: Bacterial Proliferation EC50 A. baumannii.
Setting [16] is: ATCC19606, read-out: log(EC50) Bacterial Proliferation Assay A. baumannii (converted).

Like-named read-outs stand apart in the source and are kept apart here.

With `COc1c(Br)cc(Br)cc1C(=O)Nc1ccccc1` [Compound 41, 3,5-Dibromo-2-methoxy-N-phenylbenzamide], the IC50 on native MDH (setting [4]) is above 63.1 µM; at native MDH (setting [5]), above 63 µM. For the same compound, the EC50 in data set [1] (setting [6]), in data set [2] (setting [7]), in data set [2] (setting [8]), in data set [3] (setting [9]) and in data set [3] (setting [10]) was above 100 µM throughout. This compound yielded a CC50 at 48 h in “in vitro” above 100 µM.
In the case of `O=C(Nc1ccc(Sc2nc3ccccc3s2)cc1)c1cc(Br)cc(Br)c1` [Compound 20, N-(4-(Benzo[d]thiazol-2-ylthio)phenyl)-3,5-dibromobenzamide], the values for the IC50 on native MDH (setting [4]) and on native MDH (setting [5]) were above 63.1 µM and above 63 µM, respectively. In addition, the EC50 in data set [1] (setting [6]), in data set [2] (setting [7]), in data set [2] (setting [8]), in data set [3] (setting [9]) and in data set [3] (setting [10]) was above 100 µM each time. In the data set “in vitro”, the CC50 at 48 h was above 100 µM.
As for `COc1c(Br)cccc1C(=O)Nc1ccc(Sc2nc3ccccc3s2)cc1` [Compound 34, N-(4-(Benzo[d]thiazol-2-ylthio)phenyl)-3-bromo-2-methoxybenzamide], the figures for the IC50 on native MDH (setting [4]) and at native MDH (setting [5]) were above 63.1 µM and above 63 µM, respectively. Moreover, the EC50 in data set [1] (setting [6]), in data set [2] (setting [7]), in data set [2] (setting [8]), in data set [3] (setting [9]) and in data set [3] (setting [10]) was above 100 µM in each case. The compound further came in with a CC50 at 48 h in the data set “in vitro” above 100 µM.
Regarding `CN[C@H](CC(C)C)C(=O)N[C@H]1C(=O)N[C@@H](CC(N)=O)C(=O)N[C@H]2C(=O)N[C@H]3C(=O)N[C@H](C(=O)N[C@H](C(=O)O)c4cc(O)cc(O)c4-c4cc3ccc4O)[C@H](O)c3ccc(c(Cl)c3)Oc3cc2cc(c3O[C@@H]2O[C@H](CO)[C@@H](O)[C@H](O)[C@H]2O[C@H]2C[C@](C)(N)[C@H](O)[C@H](C)O2)Oc2ccc(cc2Cl)[C@H]1O` [Vancomycin, vancomycin, reference compound], the IC50 is above 63 µM at native MDH (Biochemical Assay IC50 Native MDH Reporter) and above 63.1 µM on native MDH (log(IC50) Native MDH Reporter, log of IC50 (μM scale), with standard deviation). Moreover, the EC50 was 0.52 µM in data set [1] (setting [11]); 0.513 µM in data set [1] (setting [12]); above 100 µM in data set [2] (setting [13]); above 100 µM in data set [2] (setting [14]); above 100 µM in data set [3] (setting [15]); above 100 µM in data set [3] (setting [16]). This compound registered a CC50 at 48 h in “in vitro” above 100 µM.
As to `O=C(Nc1cccc(Cl)c1)c1cc(Br)cc(Br)c1O` [Compound 9, 3,5-Dibromo-N-(3-chlorophenyl)-2-hydroxybenzamide], the IC50 on native MDH (setting [4]) was 25.1 µM; on native MDH (setting [5]), 27 µM. The EC50 in data set [1] (setting [11]) was 1.1 µM; in data set [1] (setting [12]) it was 1.1 µM; in data set [2] (setting [13]), 95 µM; in data set [2] (setting [14]) it was 95.5 µM; in data set [3] (setting [15]) it was 46 µM; in data set [3] (setting [16]) it was 45.7 µM. The compound also gave a CC50 at 48 h in “in vitro” of 18.2 µM.
On to `O=C(Nc1ccccc1)c1cc(Br)cc(Br)c1` [Compound 26, 3,5-Dibromo-N-phenylbenzamide], for which the IC50 on native MDH (setting [4]) was above 63.1 µM; on native MDH (setting [5]), above 63 µM. For the same compound, the EC50 in data set [1] (setting [6]), in data set [2] (setting [7]), in data set [2] (setting [8]), in data set [3] (setting [9]) and in data set [3] (setting [10]) was above 100 µM in each case. In “in vitro”, the CC50 at 48 h is above 100 µM.
With `O=C(Nc1ccc(Sc2nc3ccccc3s2)c(Cl)c1)c1cccc(Br)c1` [Compound 18, N-(4-(Benzo[d]thiazol-2-ylthio)-3-chlorophenyl)-3-bromobenzamide], the figures for the IC50 on native MDH (setting [4]) and on native MDH (setting [5]) were above 63.1 µM and above 63 µM, respectively. Moreover, the EC50 in data set [1] (setting [6]), in data set [2] (setting [7]), in data set [2] (setting [8]), in data set [3] (setting [9]) and in data set [3] (setting [10]) was above 100 µM throughout. Moreover, in the data set “in vitro”, the CC50 at 48 h was above 100 µM.
On to `O=C(Nc1ccc(Oc2ccc(Cl)cc2)c(Cl)c1)c1cc(I)cc(I)c1O` [Rafoxanide, rafoxanide, reference compound], for which the “log(IC50) Native MDH Reporter” value at native MDH (log of IC50 (μM scale), with standard deviation) amounted to 1.40 ± 0.34. For the same compound, the EC50 in data set [1] (MRSA, OD600 at 6-8 h, read-out: Bacterial Proliferation EC50 S. aureus Resistant) is 0.34 µM; in data set [1] (setting [12]), 0.347 µM; in data set [2] (setting [13]), above 100 µM; in data set [2] (setting [14]), above 100 µM; in data set [3] (setting [15]), 31 µM; in data set [3] (setting [16]) it was 30.9 µM. Besides, in the data set “in vitro”, the CC50 at 48 h is above 100 µM.
For the compound `COc1c(Br)cccc1C(=O)Nc1ccccc1` [Compound 42, 3-Bromo-2-methoxy-N-phenylbenzamide], the IC50 is above 63.1 µM on native MDH (setting [4]) and above 63 µM on native MDH (setting [5]). The EC50 in data set [1] (setting [6]), in data set [2] (setting [7]), in data set [2] (setting [8]), in data set [3] (setting [9]) and in data set [3] (setting [10]) was above 100 µM in each case. This compound also came in with a CC50 at 48 h in “in vitro” above 100 µM.
`O=C(Nc1cccc(Cl)c1)c1ccccc1` [Compound 25, N-(3-Chlorophenyl)benzamide]: the IC50 on native MDH (setting [4]) is above 63.1 µM; at native MDH (setting [5]), above 63 µM. The EC50 in data set [1] (setting [6]), in data set [2] (setting [7]), in data set [2] (setting [8]), in data set [3] (setting [9]) and in data set [3] (setting [10]) was above 100 µM in each case. Moreover, the CC50 at 48 h in the data set “in vitro” is above 100 µM.
Turning to `O=C(Nc1ccc(Sc2nc3ccccc3s2)cc1)c1ccccc1` [Compound 22, N-(4-(Benzo[d]thiazol-2-ylthio)phenyl)benzamide], the IC50 is above 63.1 µM on native MDH (setting [4]) and above 63 µM on native MDH (setting [5]). Besides, the EC50 in data set [1] (setting [6]), in data set [2] (setting [7]), in data set [2] (setting [8]), in data set [3] (setting [9]) and in data set [3] (setting [10]) was above 100 µM in each case. Besides, the CC50 at 48 h in the data set “in vitro” was above 100 µM.

For orientation: IC50 means the concentration at which inhibition is half-maximal.
